Data from ChEMBL document CHEMBL5442219.

How the values were obtained:
Conditions in all cases: Compound concentration 10 µM
[1] = molecular target: T1, Alpha-1D adrenergic receptor (Homo sapiens) (UniProt P25100)
T1 sequence (whole entry): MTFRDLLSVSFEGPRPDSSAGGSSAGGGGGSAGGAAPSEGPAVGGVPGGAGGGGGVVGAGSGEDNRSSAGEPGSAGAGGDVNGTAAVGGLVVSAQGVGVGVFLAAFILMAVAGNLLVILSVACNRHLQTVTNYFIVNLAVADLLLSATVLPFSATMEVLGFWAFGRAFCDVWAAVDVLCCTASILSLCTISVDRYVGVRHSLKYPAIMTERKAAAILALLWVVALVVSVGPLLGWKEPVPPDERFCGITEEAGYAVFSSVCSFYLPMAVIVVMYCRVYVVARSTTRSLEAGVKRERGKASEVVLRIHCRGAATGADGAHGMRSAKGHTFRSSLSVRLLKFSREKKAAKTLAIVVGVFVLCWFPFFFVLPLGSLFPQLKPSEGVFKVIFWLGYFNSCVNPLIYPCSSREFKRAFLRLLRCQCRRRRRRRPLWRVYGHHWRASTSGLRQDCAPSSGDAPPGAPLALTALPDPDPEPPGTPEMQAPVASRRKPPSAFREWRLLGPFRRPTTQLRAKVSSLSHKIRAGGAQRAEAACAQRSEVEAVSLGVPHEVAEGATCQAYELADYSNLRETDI

[2] = molecular target: T2, Alpha-2A adrenergic receptor (Homo sapiens) (UniProt P08913)
T2 sequence (whole entry): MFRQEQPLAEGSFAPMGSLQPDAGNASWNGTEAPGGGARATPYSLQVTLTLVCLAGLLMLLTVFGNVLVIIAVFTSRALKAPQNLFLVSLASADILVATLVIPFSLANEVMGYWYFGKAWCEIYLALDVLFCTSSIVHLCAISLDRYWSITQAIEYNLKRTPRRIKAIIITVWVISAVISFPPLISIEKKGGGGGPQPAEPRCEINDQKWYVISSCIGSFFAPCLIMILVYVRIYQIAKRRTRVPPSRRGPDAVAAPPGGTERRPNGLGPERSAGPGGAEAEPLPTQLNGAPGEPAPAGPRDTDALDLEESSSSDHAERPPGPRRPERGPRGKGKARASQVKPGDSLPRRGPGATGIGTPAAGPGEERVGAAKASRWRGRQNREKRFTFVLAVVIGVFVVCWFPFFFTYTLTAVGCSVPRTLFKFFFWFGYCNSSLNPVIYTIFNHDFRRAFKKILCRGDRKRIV

[3] = molecular target: T3, Alpha-2C adrenergic receptor (Homo sapiens) (UniProt P18825)
T3 sequence (whole entry): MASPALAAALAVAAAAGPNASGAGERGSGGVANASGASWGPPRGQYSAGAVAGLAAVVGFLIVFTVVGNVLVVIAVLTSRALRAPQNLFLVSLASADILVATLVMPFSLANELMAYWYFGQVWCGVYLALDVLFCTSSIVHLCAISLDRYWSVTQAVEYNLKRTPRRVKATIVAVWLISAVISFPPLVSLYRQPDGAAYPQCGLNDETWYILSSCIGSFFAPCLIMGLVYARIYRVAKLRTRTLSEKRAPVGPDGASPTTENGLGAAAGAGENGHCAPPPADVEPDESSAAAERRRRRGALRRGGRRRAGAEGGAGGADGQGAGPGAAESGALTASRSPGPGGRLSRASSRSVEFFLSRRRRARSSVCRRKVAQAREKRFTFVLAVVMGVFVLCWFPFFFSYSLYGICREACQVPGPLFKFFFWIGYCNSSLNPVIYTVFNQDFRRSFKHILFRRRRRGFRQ

[4] = molecular target: T4, Muscarinic acetylcholine receptor M1 (Homo sapiens) (UniProt P11229)
T4 sequence (whole entry): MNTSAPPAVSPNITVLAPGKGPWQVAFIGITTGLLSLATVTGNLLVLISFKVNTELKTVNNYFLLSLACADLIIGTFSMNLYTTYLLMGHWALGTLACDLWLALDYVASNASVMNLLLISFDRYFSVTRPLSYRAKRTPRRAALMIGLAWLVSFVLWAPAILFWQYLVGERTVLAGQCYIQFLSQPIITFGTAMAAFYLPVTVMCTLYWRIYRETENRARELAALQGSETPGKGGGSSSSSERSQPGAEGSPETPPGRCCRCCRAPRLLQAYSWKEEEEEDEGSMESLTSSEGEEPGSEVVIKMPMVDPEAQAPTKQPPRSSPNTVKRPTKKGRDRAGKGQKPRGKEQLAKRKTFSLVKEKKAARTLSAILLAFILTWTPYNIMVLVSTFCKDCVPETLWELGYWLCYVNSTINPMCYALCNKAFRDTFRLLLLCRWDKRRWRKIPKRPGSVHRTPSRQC

[5] = molecular target: D(1B) dopamine receptor (Homo sapiens) (UniProt P21918)
[6] = molecular target: Histamine H1 receptor (Homo sapiens) (UniProt P35367)
[7] = molecular target: Histamine H4 receptor (Homo sapiens) (UniProt Q9H3N8)
[8] = molecular target: 5-hydroxytryptamine receptor 1D (Homo sapiens) (UniProt P28221)
[9] = molecular target: 5-hydroxytryptamine receptor 2B (Homo sapiens) (UniProt P41595)
[10] = molecular target: Mu-type opioid receptor (Homo sapiens) (UniProt P35372)
[11] = molecular target: Beta-3 adrenergic receptor (Homo sapiens) (UniProt P13945)
[12] = molecular target: Histamine H2 receptor (Homo sapiens) (UniProt P25021)
[13] = molecular target: Histamine H3 receptor (Homo sapiens) (UniProt Q9Y5N1)
Histamine H3 receptor (Homo sapiens), sequence (Q9Y5N1 whole entry): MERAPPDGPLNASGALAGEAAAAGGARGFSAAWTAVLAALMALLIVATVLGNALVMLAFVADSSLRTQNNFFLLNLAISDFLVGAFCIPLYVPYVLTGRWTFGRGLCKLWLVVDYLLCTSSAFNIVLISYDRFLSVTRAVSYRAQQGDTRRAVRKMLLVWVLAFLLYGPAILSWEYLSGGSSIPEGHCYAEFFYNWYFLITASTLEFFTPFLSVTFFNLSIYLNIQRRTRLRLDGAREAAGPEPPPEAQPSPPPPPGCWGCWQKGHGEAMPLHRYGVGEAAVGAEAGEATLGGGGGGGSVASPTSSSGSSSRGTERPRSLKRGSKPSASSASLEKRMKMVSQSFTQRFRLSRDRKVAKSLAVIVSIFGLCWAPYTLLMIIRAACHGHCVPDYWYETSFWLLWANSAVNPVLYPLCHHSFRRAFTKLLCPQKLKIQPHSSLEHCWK

Mu-type opioid receptor (Homo sapiens), sequence (P35372 whole entry): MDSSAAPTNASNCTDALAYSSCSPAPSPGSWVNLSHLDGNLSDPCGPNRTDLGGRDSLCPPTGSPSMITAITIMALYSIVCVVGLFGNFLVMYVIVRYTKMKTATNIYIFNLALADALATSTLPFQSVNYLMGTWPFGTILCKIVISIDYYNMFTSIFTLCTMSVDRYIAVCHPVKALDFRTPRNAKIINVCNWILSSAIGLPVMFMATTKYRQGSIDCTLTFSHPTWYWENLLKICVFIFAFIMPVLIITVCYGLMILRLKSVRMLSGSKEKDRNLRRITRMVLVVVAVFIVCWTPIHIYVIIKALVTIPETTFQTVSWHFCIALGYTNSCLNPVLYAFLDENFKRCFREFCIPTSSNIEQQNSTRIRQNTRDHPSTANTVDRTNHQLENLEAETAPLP
5-hydroxytryptamine receptor 2B (Homo sapiens), sequence (P41595 whole entry): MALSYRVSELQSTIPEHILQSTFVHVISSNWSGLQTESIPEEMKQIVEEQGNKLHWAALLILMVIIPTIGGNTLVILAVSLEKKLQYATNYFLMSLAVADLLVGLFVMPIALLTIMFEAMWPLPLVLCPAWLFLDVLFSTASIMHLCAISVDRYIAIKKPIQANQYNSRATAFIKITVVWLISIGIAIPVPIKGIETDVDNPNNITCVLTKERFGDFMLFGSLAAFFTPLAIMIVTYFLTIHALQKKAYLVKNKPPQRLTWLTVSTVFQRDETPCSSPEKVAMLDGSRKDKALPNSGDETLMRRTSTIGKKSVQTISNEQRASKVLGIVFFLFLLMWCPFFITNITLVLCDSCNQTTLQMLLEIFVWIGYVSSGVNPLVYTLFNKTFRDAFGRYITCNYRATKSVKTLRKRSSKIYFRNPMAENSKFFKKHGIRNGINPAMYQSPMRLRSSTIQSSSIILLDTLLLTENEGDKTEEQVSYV
Histamine H2 receptor (Homo sapiens), sequence (P25021 whole entry): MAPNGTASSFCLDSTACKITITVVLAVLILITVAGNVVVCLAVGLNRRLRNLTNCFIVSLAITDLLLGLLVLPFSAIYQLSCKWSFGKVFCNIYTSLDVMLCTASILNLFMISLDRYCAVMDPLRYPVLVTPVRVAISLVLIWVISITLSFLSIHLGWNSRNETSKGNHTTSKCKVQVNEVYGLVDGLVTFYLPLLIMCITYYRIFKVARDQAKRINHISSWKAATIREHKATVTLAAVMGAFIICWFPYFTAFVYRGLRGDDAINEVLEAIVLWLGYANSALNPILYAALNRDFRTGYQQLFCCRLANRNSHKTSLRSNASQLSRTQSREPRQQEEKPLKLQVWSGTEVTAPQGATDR
Beta-3 adrenergic receptor (Homo sapiens), sequence (P13945 whole entry, looked up): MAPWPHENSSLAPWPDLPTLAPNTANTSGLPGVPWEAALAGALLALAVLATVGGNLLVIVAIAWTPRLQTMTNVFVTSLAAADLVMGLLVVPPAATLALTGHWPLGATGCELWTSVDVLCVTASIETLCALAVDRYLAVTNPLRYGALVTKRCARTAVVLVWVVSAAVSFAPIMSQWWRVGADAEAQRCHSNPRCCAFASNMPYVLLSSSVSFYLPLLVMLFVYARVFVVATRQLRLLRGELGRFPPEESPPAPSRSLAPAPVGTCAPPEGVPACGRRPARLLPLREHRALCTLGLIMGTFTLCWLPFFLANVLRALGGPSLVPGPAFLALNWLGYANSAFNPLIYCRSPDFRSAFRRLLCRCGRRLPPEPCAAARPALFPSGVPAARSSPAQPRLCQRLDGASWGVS
Histamine H1 receptor (Homo sapiens), sequence (P35367 whole entry): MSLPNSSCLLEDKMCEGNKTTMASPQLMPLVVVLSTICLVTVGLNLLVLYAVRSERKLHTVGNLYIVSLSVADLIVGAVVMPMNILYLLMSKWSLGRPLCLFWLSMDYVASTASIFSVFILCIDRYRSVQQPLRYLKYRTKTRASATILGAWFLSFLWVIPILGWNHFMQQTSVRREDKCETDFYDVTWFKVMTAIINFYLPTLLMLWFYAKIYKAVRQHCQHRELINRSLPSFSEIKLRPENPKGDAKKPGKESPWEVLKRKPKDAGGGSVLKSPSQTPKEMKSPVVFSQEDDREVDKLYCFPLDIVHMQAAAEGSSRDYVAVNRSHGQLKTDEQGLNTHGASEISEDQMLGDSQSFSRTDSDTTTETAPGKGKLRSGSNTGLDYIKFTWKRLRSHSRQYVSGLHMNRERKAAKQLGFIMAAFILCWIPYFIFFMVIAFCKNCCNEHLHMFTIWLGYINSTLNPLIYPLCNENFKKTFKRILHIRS
5-hydroxytryptamine receptor 1D (Homo sapiens), sequence (P28221 whole entry): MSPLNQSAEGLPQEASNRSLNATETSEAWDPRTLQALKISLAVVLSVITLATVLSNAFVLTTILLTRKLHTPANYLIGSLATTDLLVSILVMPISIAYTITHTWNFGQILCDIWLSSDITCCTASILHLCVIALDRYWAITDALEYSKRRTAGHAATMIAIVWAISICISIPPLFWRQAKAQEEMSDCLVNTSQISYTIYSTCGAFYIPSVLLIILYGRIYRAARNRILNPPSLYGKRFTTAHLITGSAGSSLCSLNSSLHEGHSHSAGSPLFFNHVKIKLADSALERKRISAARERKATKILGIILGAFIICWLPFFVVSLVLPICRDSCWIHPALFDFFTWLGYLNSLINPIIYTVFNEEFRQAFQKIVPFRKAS
D(1B) dopamine receptor (Homo sapiens), sequence (P21918 whole entry): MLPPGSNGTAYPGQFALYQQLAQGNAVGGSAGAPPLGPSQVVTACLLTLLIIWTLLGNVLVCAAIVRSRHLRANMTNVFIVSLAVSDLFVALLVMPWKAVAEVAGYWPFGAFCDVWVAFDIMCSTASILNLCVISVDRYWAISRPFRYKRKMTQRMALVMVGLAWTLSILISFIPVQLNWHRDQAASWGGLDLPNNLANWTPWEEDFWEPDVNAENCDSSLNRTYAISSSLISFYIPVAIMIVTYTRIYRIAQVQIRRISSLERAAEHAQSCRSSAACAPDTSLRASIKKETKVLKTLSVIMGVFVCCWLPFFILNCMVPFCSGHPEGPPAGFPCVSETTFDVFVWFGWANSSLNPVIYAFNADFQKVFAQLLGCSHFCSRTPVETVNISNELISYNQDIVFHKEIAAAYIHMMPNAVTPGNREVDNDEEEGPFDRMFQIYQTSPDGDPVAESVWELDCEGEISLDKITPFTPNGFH
Histamine H4 receptor (Homo sapiens), sequence (Q9H3N8 whole entry): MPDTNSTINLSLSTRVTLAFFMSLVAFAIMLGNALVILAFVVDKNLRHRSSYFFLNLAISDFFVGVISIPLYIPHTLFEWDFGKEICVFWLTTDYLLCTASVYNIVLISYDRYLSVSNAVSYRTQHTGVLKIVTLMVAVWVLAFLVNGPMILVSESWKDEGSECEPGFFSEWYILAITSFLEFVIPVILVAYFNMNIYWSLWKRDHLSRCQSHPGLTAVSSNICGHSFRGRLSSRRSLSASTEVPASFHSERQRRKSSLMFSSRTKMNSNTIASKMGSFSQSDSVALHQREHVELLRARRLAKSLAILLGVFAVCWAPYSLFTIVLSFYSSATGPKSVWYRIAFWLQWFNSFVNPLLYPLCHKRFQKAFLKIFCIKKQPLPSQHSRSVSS

| SMILES | inhibition [1] [%] | inhibition [2] [%] | inhibition [3] [%] | inhibition [4] [%] | inhibition [5] [%] | inhibition [6] [%] | inhibition [7] [%] | inhibition [8] [%] | inhibition [9] [%] | inhibition [10] [%] | inhibition [11] [%] | inhibition [12] [%] | inhibition [13] [%] |
| --- | --- | --- | --- | --- | --- | --- | --- | --- | --- | --- | --- | --- | --- |
| CCc1ccc(OCc2ccccc2C(=O)Nc2ccc3nc(C)cc(N)c3c2)cc1 | 57.8 | 42.2 | 40.9 | 74.4 | 39.1 | 7.44 | 36.6 | 59.3 | 74.8 | 81.7 | 68.6 | 46.7 | – |
| COc1ccc(NS(=O)(=O)c2sc3ccc(Cl)cc3c2C)cc1N1CCNCC1 | 33 | 75.7 | 35.2 | -7.39 | 22.4 | 15.6 | 18.2 | 66.8 | 71.2 | 56.3 | 56.5 | 13.5 | 16.6 |
| CCCCCNC(=N)N/N=C/c1c[nH]c2ccc(OC)cc12 | 55.8 | 77.7 | 94.1 | 19.6 | 54.4 | 31.1 | 27.9 | 76.3 | 100 | 63.9 | 89.7 | 23.9 | 19 |
| Clc1cccc(COc2cncc(N3CCNCC3)n2)c1 | 22.3 | 33.7 | 36.9 | 82 | 11.8 | 55.6 | 49.1 | 89.1 | 99.5 | 0.78 | 28.7 | 14.4 | 20.2 |
| COc1ccc(OC(F)(F)F)cc1CN[C@H]1CCCN[C@H]1c1ccccc1 | 15.1 | 38.4 | 9.77 | 13.7 | -8.91 | 92.9 | 1.14 | -4.51 | 87.7 | 41.3 | 6.31 | 42.3 | – |
| COc1cc(-n2cnc3cc(-c4ccc(Cl)cc4)sc3c2=O)ccc1OCCN1CCCC1 | 53.1 | 70.6 | 71.9 | 84.1 | 27.2 | 42.2 | 58.1 | 56.6 | 82.7 | 37.9 | 43.7 | 18.7 | 88.9 |
| C[C@@H](NCCCc1cccc(C(F)(F)F)c1)c1cccc2ccccc12 | 28.2 | 27.9 | 77.9 | 17.6 | -9.65 | 12.7 | 14 | 61.5 | 96.3 | 78.3 | 48 | 62.1 | 18.1 |
| COc1cccc([C@@H](C)NCCCc2ccccc2Cl)c1 | 20.3 | 45.1 | 79.9 | -0.51 | 8.31 | 70.6 | 0 | 33.7 | 96.6 | 57.2 | 50.2 | 72.6 | 26.7 |
